The test system of series [1] is dopamine (DA) neurons in substantia nigra pars compacta. The following applies: MPTP model, daily injections; cited from earlier work.
Series [2] is described as follows: Total antioxidant activity assay (TEAC; metmyoglobin, 2,2′-azinobis(3-ethylbenzoline 6-sulfonate), H2O2). How it is done: Briefly, 1 ml of reaction mixture including 2.5 μM metmyoglobin, 150 μM 2,2′-azinobis(3-ethylbenzoline 6-sulfonate), 75 μM H2O2, and 0.84% sample or Trolox (for standard) in PBS was incubated for 7.5 min at 30° C.; then the absorbance at 734 nm was measured. The data are normalized to 1 mM Trolox (TEAC activity) [Kumiko I. et al., The Activation of Dopamine D4 Receptors Inhibits Oxidative Stress-Induced Nerve Cell Death., J. Neurosci., 2001]. The EC50 values were analyzed statistically using Prizm® (GraphPad Software Inc., San Diego, Calif., USA).

A further series deals with HT22 cells. The series is described as follows: ROS measurement using DCFDA in glutamate-treated HT22 cells. As to conditions: Mus musculus, HT-22, 5 mM glutamate, 8 hrs. It counts as cell-based. How it is done:
HT22 cells (1×10^4) plated in a 96-well plate were treated with 5 mM glutamate in the absence or presence of 3-HM.HBr or the compound of Example 26, and incubated for 8 hrs. After washing with PBS, cells were stained with 10 μM 2,7-dichlorodihydrofluorescein diacetate (DCFDA) in HBSS (Hank's balanced salt solution, Gibco) for 30 min in the dark. Then the cells were washed with PBS twice and extracted with 1% Triton X-100 in PBS for 10 min at 37° C. Fluorescence was recorded with the excitation wavelength of 490 nm and the emission wavelength of 525 nm (Infinite M200, TECAN) [Da-Qing, et. al., Anti-oxidant and anti-inflammatory activities of macelignan in murine hippocampal cell line and primary culture of rat microglia cells, BBRC, 2005, 331, 1264-1269]. The EC50 values were analyzed statistically using Prizm® (GraphPad Software Inc., San Diego, Calif., USA).

Series [3] relates to SirT1. The series is described as follows: RT-PCR analysis of target gene expression under glutamate toxicity in HT22 cells. In kind it is cell-based, mouse. The following applies: 10 mM glutamate, 18 hrs. On the procedure: HT22 cells (1.5×10^7) plated in a 100 mm dish were treated with 10 mM glutamate in the absence or presence of 3-HM.HBr or the compound of Example 26 and incubated for 18 hrs. Oligonucleotide primers used for the PCR amplification were DJ-1 (PARK7), LRRK2 (Leucine-rich repeat kinase 2), PINK1 (PTEN induced putative kinase 1), SirT1 (silent mating type information regulation 2 homolog 1 (S. cerevisiae)), SirT2 (silent mating type information regulation 2 homolog 2 (S. cerevisiae)), and others. PCR products were electrophoresed on 2% agarose gels and detected by ethidium bromide [Kumiko I. et al., The Activation of Dopamine D4 Receptors Inhibits Oxidative Stress-Induced Nerve Cell Death., J. Neurosci., 2001].
FIG. 2A and FIG. 2B show the results of reverse transcription polymerase chain reaction.
In FIG. 2A, Lane 1 is mock, Lane 2 is the group treated with 10 mM Glutamate, and Lane 3 is the group treated with 10 mM Glutamate and 100 uM 3-HM.HBr. […]

Series [4] in a line: Cell cytotoxicity test: protection of HT22 cells against glutamate toxicity (EC50) and cytotoxicity of the compounds (CC50), MTT. It counts as cell-based, mouse. As to conditions: mouse, HT22 cells (mouse hippocampal neuron). Put shortly:
(§1)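 Cells plated 16 hrs, then exposed to 5 mM glutamate plus a compound concentration series for 24 hrs in DMEM with 10% FBS. Viability by MTT (4 hrs), absorbance at 450 nm; EC50 is protection against glutamate toxicity, CC50 is compound cytotoxicity.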

In series [5] the test system is HT22 cells (mouse hippocampal neuron). The series is described as above. The following applies: Mus musculus, HT-22, five millimolar glutamate, 24 hrs, read-out: EC50 (neuroprotective effect against glutamate toxicity). In kind it is cell-based. Put shortly:
as §1

Series [6] deals with SirT1. The series is described as follows: Western blotting analysis of SirT1 in glutamate-treated HT22 cells. The following applies: 10 mM glutamate, 18 hrs. In kind it is cell-based, mouse. How it is done: HT22 cells (1.5×10^7) plated in a 100 mm dish were treated with 10 mM glutamate in the absence or presence of 3-HM.HBr or the compound of Example 26, and incubated for 18 hrs. The cells were collected by scraping in a sample buffer (3% SDS, 1% glycerol, 0.5% 2-mercaptoethanol, 0.05% bromophenol blue, and 80 mM Tris-HCl buffer, pH 6.8, with complete protease inhibitors). The resulting suspention was centrifuged and the pellets thus obtained were re-suspended in the sample buffer. The samples were heated for 3 min in boiling water, fractionated on 4-20% polyacrylamide gels, and electroblotted onto membranes. SirT1 affinity purified polyclonal antibody was used as the primary antibody. Immunoreactive bands were detected with the ECL (Amersham Pharmacia Biotech, Arlington Heights, Ill.) Western blotting detection reagents [Kumiko, I. et al., The Activation of Dopamine D4 Receptors Inhibits Oxidative Stress-Induced Nerve Cell Death., J. Neurosci., 2001, 21(16):6069-6076]. […]

These results are taken from US20120122848A1, “(+)-3-HYDROXYMORPHINAN DERIVATIVES AS NEUROPROTECTANTS” (GREEN CROSS CORPORATION, priority 2009, published 2012).

The structures appear in SMILES notation. Structures can show the parent of a compound that is named as a salt.

For `Oc1ccc2c(c1)[C@]13CCCC[C@@H]1[C@H](C2)NCC3` [(+)-3-HM, (+)-3-Hydroxymorphinan], in series [1], the “DA levels in striatum” value is “DA levels in striatum has been restored” and the “protection of DA neurons in substantia nigra pars compacta” value is listed as “dopamine (DA) neurons in substantia nigra pars compacta have been protected”.

On to `Oc1ccc(Nc2cc3c(cc2O)[C@]24CCCC[C@@H]2[C@H](C3)NCC4)cc1` [Example 26, (+)-3-Hydroxy-2-(4-hydroxyphenylamino)morphinan TFA salt], for which the half-maximal effective concentration (EC50) in series [2] (7.5 min at 30° C., absorbance at 734 nm) amounted to 32.4 µM; with HT22 cells it was 3.11 µM; in series [5] it was 0.00459 µM. For the same molecule, the “SirT1 expression levels (RT-PCR)” value in the series with SirT1 [3] is given as “decreased SirT1 expression levels were elevated”. The CC50 at 24 h in series [4] was 2.31 µM. The “SirT1 expression (Western blotting)” value in the series on SirT1 [6] is recorded as “this decreasing was protected”.

As for `Oc1ccc2c(c1)[C@]13CCCC[C@@H]1[C@H](C2)NCC3` [3-HM•HBr, (+)-3-hydroxymorphinan HBr, reference compound], the “inhibition (total antioxidant activity)” value in series [2] (at 100 μM) is 22.4%. Further, the values for the EC50 (with HT22 cells; in series [5]) were 38.5 µM and 31.3 µM, respectively. In addition, in the series on SirT1 [3], the “SirT1 expression levels (RT-PCR)” value was “decreased SirT1 expression levels were elevated”. The molecule further displayed a 50% cytotoxic concentration (CC50) at 24 h in series [4] greater than 100 µM. The “SirT1 expression (Western blotting)” value in the series on SirT1 [6] is listed as “this decreasing was protected”.

The term EC50 denotes the concentration needed to bring the measured effect to its halfway point. In general, CC50 refers to the concentration giving 50% cytotoxicity.
